Values of other authors in patent US20110253140A1, “FORMULATIONS CONTAINING LARGE-SIZE CARRIER PARTICLES FOR DRY POWDER INHALATION AEROSOLS” (STC.UNM, priority 2008, published 2011).
Like-named read-outs stand apart in the source and are kept apart here.

For CCCC1O[C@@H]2C[C@H]3[C@@H]4CCC5=CC(=O)C=C[C@]5(C)[C@H]4[C@@H](O)C[C@]3(C)[C@]2(C(=O)CO)O1 (some centres unmarked) [budesonide], the “lung deposition, % of the metered dose” value (PIF 35 L/min) is given as 14.8% and the “lung deposition, % of the metered dose” value (peak inspiratory flow rate (PIF) 60 L/min) is given as 27.7%.
